For series [1], the target named is T1, HIV-1HXB2 Env (Human immunodeficiency virus type 1 group M subtype B, UniProt P04578).
T1 construct: HL2/3 cells, which stably express high levels of Env, Gag, Tat, Rev, and Nef proteins of the integrated HIV-1 molecular clone HXB2/3gpt; host or cells: HL2/3 cells (effector), cocultured with TZM-bl target cells
The series can be described thus: HIV-1HXB2 Env-mediated cell-cell fusion (HL2/3 effector, TZM-bl target, luciferase reporter). It counts as cell-based. How it is done: The inhibitory activities of inhibitors on HIV-1HXB2 Env-mediated cell-cell fusion were determined by a reporter gene assay based on the activation of an HIV LTR-driven luciferase cassette in TZM-bl cells (target) by HIV-1 tat from HL2/3 cells (effector). Briefly, 1 x 10^4/well of TZM-bl cells were plated in 96-well plates and incubated at 37°C overnight. Then, 3 x 10^4/well of HL2/3 cells were cocultured with target cells for 6 h at 37°C in the presence or absence of an inhibitor at graded concentrations. Luciferase activity was measured using luciferase assay reagents and a Luminescence Counter (Promega, Madison, Wisconsin, USA).
(In general: In a reporter assay the amount or activity of a reporter protein is the signal.)

In series [2] the test system is HIV-1NL4-3(D36G) pseudovirus. It counts as cell-based. To be noted: Fig 1; NL4-3(D36G) pseudovirus; mean ± SD of three assays in triplicate; read-out: Anti-HIV activity (IC50, pM) NL4-3 entry. How it is done: The inhibitory activities of inhibitors against HIV-1 pseudoviruses and replication-competent isolates were measured as described previously. Briefly, HIV-1 pseudoviruses were generated via the cotransfection of HEK293T cells with an Env-expressing plasmid and a backbone plasmid that encodes Env-defective, luciferase-expressing HIV-1 genome (pSG3Δenv). Viral stocks of replication-competent HIV-1 isolates were generated by transfecting viral molecular clones into HEK293T cells. […] Inhibitors were prepared in 3-fold dilutions, mixed with 100 TCID50 of a virus, and then incubated for 1 h at room temperature. […] Luciferase activity was measured as described above.

Series [3] has as its target HIV-1JRCSF. It counts as cell-based. To be noted: Fig 1; replication-competent virus; mean ± SD of three assays in triplicate; read-out: Anti-HIV activity (IC50, pM) JRCSF infection. The procedure: The inhibitory activities of inhibitors against HIV-1 pseudoviruses and replication-competent isolates were measured as described previously. Briefly, HIV-1 pseudoviruses were generated via the cotransfection of HEK293T cells with an Env-expressing plasmid and a backbone plasmid that encodes Env-defective, luciferase-expressing HIV-1 genome (pSG3Δenv). Viral stocks of replication-competent HIV-1 isolates were generated by transfecting viral molecular clones into HEK293T cells. Culture supernatants were harvested at 48 h posttransfection, and 50% tissue culture infectious doses (TCID50) in TZM-bl cells were determined. Inhibitors were prepared in 3-fold dilutions, mixed with 100 TCID50 of a virus, and then incubated for 1 h at room temperature. The mixture was added to TZM-bl cells (10^4/well), and the cells were incubated for additional 48 h at 37°C. Luciferase activity was measured as described above.

In series [4] the target is T2, gp41 NHR-derived target mimic peptide N39 (Human immunodeficiency virus type 1 group M subtype B, UniProt P04578).
T2 construct: the gp41 NHR-derived target mimic peptide N39
Put plainly: CD spectroscopy of lipopeptides in complex with target mimic peptide N39. It counts as binding, HIV-1. On the set-up: [θ]222: unit not given here. To be noted: complex with N39, each peptide 10 μM in PBS; representative of 2 assays. The text has this: Spectra were corrected by subtracting a solvent blank.

The conditions of series [5]: lipopeptide alone, 10 μM in PBS; [θ]222 / -33,000; representative of 2 assays.

Peptide text beside a SMILES is read from it. * marks the point of attachment. Stearoyl = CCCCCCCCCCCCCCCCCC(=O)*; Lauroyl = CCCCCCCCCCCC(=O)*; Octanoyl = CCCCCCCC(=O)*

T2 sequence (P04578 528-566): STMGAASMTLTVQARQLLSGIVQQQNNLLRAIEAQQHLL
T1 sequence (P04578 512-856): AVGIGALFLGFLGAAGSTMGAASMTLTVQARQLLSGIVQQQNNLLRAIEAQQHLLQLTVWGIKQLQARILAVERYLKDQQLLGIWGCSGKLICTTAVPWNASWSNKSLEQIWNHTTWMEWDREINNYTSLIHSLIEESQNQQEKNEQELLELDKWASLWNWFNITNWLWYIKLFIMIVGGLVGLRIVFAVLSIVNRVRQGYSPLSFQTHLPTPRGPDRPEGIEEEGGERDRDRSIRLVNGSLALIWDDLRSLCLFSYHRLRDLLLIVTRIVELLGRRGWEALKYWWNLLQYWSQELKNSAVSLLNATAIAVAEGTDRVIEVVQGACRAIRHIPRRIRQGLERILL

With `CCCCCCCCCCCC(=O)NCCCC[C@H](NC(=O)[C@H](CCC(=O)O)NC(=O)[C@H](CC(C)C)NC(=O)[C@H](CCCCN)NC(=O)[C@H](CCCCN)NC(=O)[C@H](CC(C)C)NC(=O)[C@H](CCC(=O)O)NC(=O)[C@H](CCC(=O)O)NC(=O)[C@H](CCC(=O)O)NC(=O)[C@H](CC(N)=O)NC(=O)[C@H](CCCCN)NC(=O)[C@H](CCCCN)NC(=O)[C@H](CCC(N)=O)NC(=O)[C@H](CCC(N)=O)NC(=O)[C@H](CCC(=O)O)NC(=O)[C@H](CCC(=O)O)NC(=O)[C@H](C)NC(=O)[C@H](CCCCN)NC(=O)[C@H](CCCCN)NC(=O)[C@H](CC(C)C)NC(=O)[C@H](CC(C)C)NC(=O)[C@H](CCC(=O)O)NC(=O)[C@H](CCC(=O)O)NC(=O)[C@@H](NC(=O)[C@H](CCCCN)NC(=O)[C@H](CCC(N)=O)NC(=O)[C@H](CCC(=O)O)NC(=O)[C@H](Cc1c[nH]c2ccccc12)NC(C)=O)[C@@H](C)CC)C(N)=O` [LP-81] (Ac-WEQKIEELLKKAEEQQKKNEEELKKLEK(Lauroyl)-NH2), the values for the IC50 in series [1], in series [2] and in series [3] were 0.353 ± 0.0763 nM, 111 ± 68.1 pM and 183 ± 45.4 pM, respectively. Also, the “Helix content (%)” value in series [4] stood at 49%; in series [5] it was 37%. Moreover, the “[θ]222” value in series [4] is -16313.
As for `CCCCCCCC(=O)NCCCC[C@H](NC(=O)[C@H](CCC(=O)O)NC(=O)[C@H](CC(C)C)NC(=O)[C@H](CCCCN)NC(=O)[C@H](CCCCN)NC(=O)[C@H](CC(C)C)NC(=O)[C@H](CCC(=O)O)NC(=O)[C@H](CCC(=O)O)NC(=O)[C@H](CCC(=O)O)NC(=O)[C@H](CC(N)=O)NC(=O)[C@H](CCCCN)NC(=O)[C@H](CCCCN)NC(=O)[C@H](CCC(N)=O)NC(=O)[C@H](CCC(N)=O)NC(=O)[C@H](CCC(=O)O)NC(=O)[C@H](CCC(=O)O)NC(=O)[C@H](C)NC(=O)[C@H](CCCCN)NC(=O)[C@H](CCCCN)NC(=O)[C@H](CC(C)C)NC(=O)[C@H](CC(C)C)NC(=O)[C@H](CCC(=O)O)NC(=O)[C@H](CCC(=O)O)NC(=O)[C@@H](NC(=O)[C@H](CCCCN)NC(=O)[C@H](CCC(N)=O)NC(=O)[C@H](CCC(=O)O)NC(=O)[C@H](Cc1c[nH]c2ccccc12)NC(C)=O)[C@@H](C)CC)C(N)=O` [LP-82] (Ac-WEQKIEELLKKAEEQQKKNEEELKKLEK(Octanoyl)-NH2), the results for the IC50 in series [1], in series [2] and in series [3] were 3.21 ± 1.43 nM, 1010 ± 344 pM and 3710 ± 1080 pM, respectively. In addition, the “Helix content (%)” value in series [4] is reported as 39%; in series [5], 22%. Moreover, the “[θ]222” value in series [4] is on record as -12910.
In the case of `CCCCCCCCCCCCCCCCCC(=O)NCCCC[C@H](NC(=O)[C@H](CCC(=O)O)NC(=O)[C@H](CC(C)C)NC(=O)[C@H](CCCCN)NC(=O)[C@H](CCCCN)NC(=O)[C@H](CC(C)C)NC(=O)[C@H](CCC(=O)O)NC(=O)[C@H](CCC(=O)O)NC(=O)[C@H](CCC(=O)O)NC(=O)[C@H](CC(N)=O)NC(=O)[C@H](CCCCN)NC(=O)[C@H](CCCCN)NC(=O)[C@H](CCC(N)=O)NC(=O)[C@H](CCC(N)=O)NC(=O)[C@H](CCC(=O)O)NC(=O)[C@H](CCC(=O)O)NC(=O)[C@H](C)NC(=O)[C@H](CCCCN)NC(=O)[C@H](CCCCN)NC(=O)[C@H](CC(C)C)NC(=O)[C@H](CC(C)C)NC(=O)[C@H](CCC(=O)O)NC(=O)[C@H](CCC(=O)O)NC(=O)[C@@H](NC(=O)[C@H](CCCCN)NC(=O)[C@H](CCC(N)=O)NC(=O)[C@H](CCC(=O)O)NC(C)=O)[C@@H](C)CC)C(N)=O` [LP-88] (Ac-EQKIEELLKKAEEQQKKNEEELKKLEK(Stearoyl)-NH2), the IC50 in series [1] came out at 0.0144 ± 0.00137 nM; in series [2], 4.26 ± 1.3 pM; in series [3] it was 4.29 ± 0.58 pM. Also, the “Helix content (%)” value worked out at 55% in series [4] and 34% in series [5]. Further, the “[θ]222” value in series [4] is on record as -18242.
For `CCCCCCCCCCCCCCCCCC(=O)NCCCC[C@H](NC(=O)[C@H](CCC(=O)O)NC(=O)[C@H](CC(C)C)NC(=O)[C@H](CCCCN)NC(=O)[C@H](CCCCN)NC(=O)[C@H](CC(C)C)NC(=O)[C@H](CCC(=O)O)NC(=O)[C@H](CCC(=O)O)NC(=O)[C@H](CCC(=O)O)NC(=O)[C@H](CC(N)=O)NC(=O)[C@H](CCCCN)NC(=O)[C@H](CCCCN)NC(=O)[C@H](CCC(N)=O)NC(=O)[C@H](CCC(N)=O)NC(=O)[C@H](CCC(=O)O)NC(=O)[C@H](CCC(=O)O)NC(=O)[C@H](C)NC(=O)[C@H](CCCCN)NC(=O)[C@H](CCCCN)NC(=O)[C@H](CC(C)C)NC(=O)[C@H](CC(C)C)NC(=O)[C@H](CCC(=O)O)NC(=O)[C@H](CCC(=O)O)NC(=O)[C@@H](NC(=O)[C@H](CCCCN)NC(C)=O)[C@@H](C)CC)C(N)=O` [LP-89] (Ac-KIEELLKKAEEQQKKNEEELKKLEK(Stearoyl)-NH2), the figures for the IC50 in series [1], in series [2] and in series [3] were 0.0733 ± 0.021 nM, 10.8 ± 3.14 pM and 12.4 ± 1.22 pM, respectively. Moreover, the “Helix content (%)” value in series [4] was 51%; in series [5], 43%. In addition, the “[θ]222” value in series [4] is -16781.
With `CCCCCCCCCCCCCCCCCC(=O)NCCCC[C@H](NC(=O)[C@H](CCCCN)NC(=O)[C@H](CC(C)C)NC(=O)[C@H](CCC(=O)O)NC(=O)[C@H](CCC(=O)O)NC(=O)[C@H](CCC(=O)O)NC(=O)[C@H](CC(N)=O)NC(=O)[C@H](CCCCN)NC(=O)[C@H](CCCCN)NC(=O)[C@H](CCC(N)=O)NC(=O)[C@H](CCC(N)=O)NC(=O)[C@H](CCC(=O)O)NC(=O)[C@H](CCC(=O)O)NC(=O)[C@H](C)NC(=O)[C@H](CCCCN)NC(=O)[C@H](CCCCN)NC(=O)[C@H](CC(C)C)NC(=O)[C@H](CC(C)C)NC(=O)[C@H](CCC(=O)O)NC(=O)[C@H](CCC(=O)O)NC(=O)[C@@H](NC(=O)[C@H](CCCCN)NC(=O)[C@H](CCC(N)=O)NC(=O)[C@H](CCC(=O)O)NC(=O)[C@H](Cc1c[nH]c2ccccc12)NC(C)=O)[C@@H](C)CC)C(N)=O` [LP-91] (Ac-WEQKIEELLKKAEEQQKKNEEELKK(Stearoyl)-NH2), the 50% inhibitory concentration (IC50) stood at 0.0131 ± 0.00125 nM in series [1], 7.33 ± 0.49 pM in series [2] and 11.1 ± 2.13 pM in series [3]. The “Helix content (%)” value is 55% in series [4] and 42% in series [5]. The “[θ]222” value in series [4] is -18156.
Consider `CCCCCCCCCCCCCCCCCC(=O)NCCCC[C@H](NC(=O)[C@H](CCCCN)NC(=O)[C@H](CC(C)C)NC(=O)[C@H](CCC(=O)O)NC(=O)[C@H](CCC(=O)O)NC(=O)[C@H](CCC(=O)O)NC(=O)[C@H](CC(N)=O)NC(=O)[C@H](CCCCN)NC(=O)[C@H](CCCCN)NC(=O)[C@H](CCC(N)=O)NC(=O)[C@H](CCC(N)=O)NC(=O)[C@H](CCC(=O)O)NC(=O)[C@H](CCC(=O)O)NC(=O)[C@H](C)NC(=O)[C@H](CCCCN)NC(=O)[C@H](CCCCN)NC(=O)[C@H](CC(C)C)NC(=O)[C@H](CC(C)C)NC(=O)[C@H](CCC(=O)O)NC(=O)[C@H](CCC(=O)O)NC(=O)[C@@H](NC(C)=O)[C@@H](C)CC)C(N)=O` [LP-92] (Ac-IEELLKKAEEQQKKNEEELKK(Stearoyl)-NH2), for which the IC50 in series [1] came out at 0.189 ± 0.0199 nM; in series [2], 168 ± 20.6 pM; in series [3] it was 229 ± 28.4 pM. Moreover, the entries for the “Helix content (%)” value in series [4] and in series [5] were 38% and 16%, respectively. Besides, the “[θ]222” value in series [4] is on record as -12476.

In general, IC50 refers to the concentration needed to halve the response being measured.

For the origin of these results see paper PMC6375636, “Monotherapy with a low-dose lipopeptide HIV fusion inhibitor maintains long-term viral suppression in rhesus macaques” (PLoS Pathogens, 2019).
